In patent publication US8343990B2, “Substituted cyclopropyl compounds, compositions containing such compounds and methods of treatment” (Merck Sharp & Dohme Corp., priority 2008, dated 2013):
Structures can show the parent of a compound that is named as a salt.

Molecular target: T1, GPR119 receptor (UniProt Q8TDV5, S309L, species not given)
T1 sequence (Q8TDV5 1-335 S309L): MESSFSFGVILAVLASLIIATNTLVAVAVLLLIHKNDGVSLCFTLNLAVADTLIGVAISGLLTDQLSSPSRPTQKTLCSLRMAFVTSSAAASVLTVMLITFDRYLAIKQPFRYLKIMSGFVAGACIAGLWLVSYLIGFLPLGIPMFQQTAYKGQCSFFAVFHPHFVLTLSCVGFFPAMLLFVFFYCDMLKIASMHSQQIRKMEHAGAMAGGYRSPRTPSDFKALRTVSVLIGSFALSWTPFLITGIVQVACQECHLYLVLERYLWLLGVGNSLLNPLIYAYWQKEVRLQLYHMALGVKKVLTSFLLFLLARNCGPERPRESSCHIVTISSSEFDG
Assay: GPR119 signaling, cyclic AMP (cAMP) homogenous time resolved fluorescence (HTRF) assay
Type: cell-based
Details: CHO cells with Gα15 and murine GPR119, or HEK293 Flp-In cells with human GPR119 S309L; table does not say which; read-out: Activity: inflection points, denoted as EC50 values (agonist activation of GPR119, cAMP)
Method in brief: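 Agonist-induced cAMP measured in CHO cells expressing Gα15 plus murine GPR119, or HEK293 Flp-In cells expressing human S309L variant. Suspended cells exposed to compound titration 60 min at room temperature, lysed, HTRF read after 60 min; EC50 and efficacy versus internal agonist from 4-parameter fit.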

Question: How did the EC50 turn out when N#Cc1ccc(OC[C@@H]2C[C@H]2CC2CCN(c3ncc(Cl)cn3)CC2)cc1F (racemic) [Ex 104, Rac-trans-4-[(2-{[1-(5-chloropyrimidin-2-yl)piperidin-4-yl]methyl}cyclopropyl)methoxy]-2-fluorobenzonitrile] was run?
Answer: The EC50 was 50 to 200 nM.

Question: Which EC50 does the source give for C[S+]([O-])c1ccc(OCCC2CC2C2CCN(c3ncc(Cl)cn3)CC2)cc1 (single isomer, unassigned) [Ex 33, Chiral-cis-5-chloro-2-[4-(2-{2-[4-(methylsulfinyl)phenoxy]ethyl}cyclopropyl)piperidin-1-yl]pyrimidine] here?
Answer: The EC50 was under 10 nM.

Question: For O=C(NC1CC1)c1ccc(OCC[C@H]2C[C@@H]2C2CCN(c3ncc(Cl)cn3)CC2)cc1F [Ex 93, 4-(2-{(1R,2R)-2-[1-(5-chloropyrimidin-2-yl)piperidin-4-yl]cyclopropyl}ethoxy)-N-cyclopropyl-2-fluorobenzamide], which EC50 is on record?
Answer: The EC50 was under 10 nM.

Question: Which EC50 does the source give for Clc1cnc(N2CCC(C3CC3CCOc3cccc(-n4cncn4)c3)CC2)nc1 (racemic) [Ex 9, rac cis-5-chloro-2-[4-(2-{2-[3-(1H-1,2,4-triazol-1-yl)phenoxy]ethyl}cyclopropyl)piperidin-1-yl]pyrimidine] here?
Answer: Its EC50 is 50 to 200 nM.

Question: Fc1cc(OCCC2CC2C2CCN(c3ncc(Cl)cn3)CC2)ccc1-n1cnnn1 (single isomer, unassigned) [Ex 83dF, cis-5-chloro-2-[4-(2-{2-[3-fluoro-4-(1H-tetrazol-1-yl)phenoxy]ethyl}cyclopropyl)piperidin-1-yl]pyrimidine] was tested. Which EC50 did it give?
Answer: The EC50 was 10 to 50 nM.

Question: How did the EC50 turn out when Clc1cnc(N2CCC(C3CC3CCOc3ccc(-c4nnco4)cc3)CC2)nc1 (racemic) [Ex 15, rac cis-5-chloro-2-[4-(2-{2-[4-(1,3,4-oxadiazol-2-yl)phenoxy]ethyl}cyclopropyl)piperidin-1-yl]pyrimidine] was run?
Answer: The EC50 was 10 to 50 nM.

Question: With Cc1nnc(-c2ccc(OCC[C@H]3C[C@H]3C3CCN(c4ccc(C(F)(F)F)cn4)CC3)cc2F)o1 (racemic) [Ex 89, Rac-cis-2-[4-(2-{2-[3-fluoro-4-(5-methyl-1,3,4-oxadiazol-2-yl)phenoxy]ethyl}cyclopropyl)piperidin-1-yl]-5-(trifluoromethyl)pyridinium trifluoroacetate] as the compound, how does the EC50 read?
Answer: The EC50 was under 10 nM.

Question: For Fc1cc(OC[C@@H]2C[C@H]2CC2CCN(c3ncc(Cl)cn3)CC2)ccc1-c1nnc(C2CC2)o1 (racemic) [Ex 111, rac-trans 5-chloro-2-{4-[(2-{[4-(5-cyclopropyl-1,3,4-oxadiazol-2-yl)-3-fluorophenoxy]methyl}cyclopropyl)methyl]piperidin-1-yl}pyrimidine], which EC50 is on record?
Answer: The EC50 was 10 to 50 nM.

Question: For Cc1nc(C#N)cc(OCC[C@@H]2C[C@@H]2C2CCN(c3cc(C)c(Cl)cn3)CC2)n1 (racemic) [Ex 45, Rac-cis-6-(2-{2-[1-(5-chloro-4-methylpyridin-2-yl)piperidin-4-yl]cyclopropyl}ethoxy)-2-methylpyrimidine-4-carbonitrile], which EC50 is on record?
Answer: Its EC50 is 10 to 50 nM.

Question: How did the EC50 turn out when Clc1cnc(N2CCC(C3CC3CCOc3ccc(-n4ccnn4)cn3)CC2)nc1 (single isomer, unassigned) [Ex 55a, Chiral cis-5-chloro-2-{4-[2-(2-{[5-(1H-1,2,3-triazol-1-yl)pyridin-2-yl]oxy}ethyl)cyclopropyl]piperidin-1-yl}pyrimidine] was run?
Answer: Its EC50 is under 10 nM.

Question: Which EC50 does the source give for Clc1cnc(N2CCC([C@@H]3C[C@@H]3CCOc3ccncc3)CC2)nc1 (racemic) [Ex 55, Rac-cis-5-chloro-2-(4-{2-[2-(pyridin-4-yloxy)ethyl]cyclopropyl}piperidin-1-yl)pyrimidine] here?
Answer: The EC50 was 10 to 50 nM.

Question: For Clc1cnc(N2CCC(C3CC3CCOc3ccc(-n4nccn4)cc3)CC2)nc1 (racemic) [Ex 28, rac cis-5-chloro-2-[4-(2-{2-[4-(2H-1,2,3-triazol-2-yl)phenoxy]ethyl}cyclopropyl)piperidin-1-yl]pyrimidine], which EC50 is on record?
Answer: The EC50 was 50 to 200 nM.

Question: For Cc1nc(C#N)cc(OC[C@@H]2C[C@H]2CC2CCN(c3ncc(Cl)cn3)CC2)n1 (racemic) [Ex 113, rac-trans-6-[(2-{[1-(5-chloropyrimidin-2-yl)piperidin-4-yl]methyl}cyclopropyl)methoxy]-2-methylpyrimidine-4-carbonitrile], which EC50 is on record?
Answer: The EC50 was 50 to 200 nM.

Question: How did the EC50 turn out when Clc1cnc(N2CCC([C@@H]3C[C@@H]3CCOc3ccc(-n4ccnn4)cc3)CC2)nc1 (single isomer, unassigned) [Ex 83aS, cis-5-chloro-2-[4-(2-{2-[4-(1H-1,2,3-triazol-1-yl)phenoxy]ethyl}cyclopropyl)piperidin-1-yl]pyrimidine] was run?
Answer: Its EC50 is under 10 nM.

Question: With CS(=O)(=O)c1ccc(OCC[C@H]2C[C@H]2C2CCN(c3ncc(Cl)cn3)CC2)nc1 (racemic) [Ex 6a, rac-cis 5-chloro-2-{-4-[2-(2-{[5-(methylsulfonyl)pyridin-2-yl]oxy}ethyl)cyclopropyl]piperidin-1-yl}pyrimidine] as the compound, how does the EC50 read?
Answer: The EC50 was under 10 nM.

Question: How did the EC50 turn out when Cc1cc(OCC[C@@H]2C[C@H]2C2CCN(c3ncc(Cl)cn3)CC2)nc(C#N)n1 (racemic) [Ex 99, rac-trans-4-{2-{2-[1-(5-chloropyrimidin-2-yl)piperidin-4-yl]cyclopropyl}ethoxy)-6-methylpyrimidine-2-carbonitrile] was run?
Answer: The EC50 was 10 to 50 nM.
